Experimental data: PubChem BioAssay (NCI)
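Grown in 96-well plates, cells were treated for 48 hours with each compound at five concentrations. Insufficient inhibition: endpoint recorded as highest concentration tested. TGI marks complete inhibition of growth.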

Legend:
Test in all cases: inhibition of tumour cell growth, NCI panel, 48 h
[1] = test system: ACHN renal
[2] = test system: CAKI-1 renal
[3] = test system: CCRF-CEM leukemia
[4] = test system: COLO 205 colon
[5] = test system: EKVX NSCLC
[6] = test system: HOP-92 NSCLC
[7] = test system: MALME-3M melanoma
[8] = test system: SF-539 CNS
[9] = test system: SK-MEL-28 melanoma
[10] = test system: SNB-19 CNS
[11] = test system: T-47D breast
[12] = test system: U251 CNS
[13] = test system: UACC-257 melanoma
[14] = test system: HL-60(TB) leukemia
[15] = test system: HT29 colon
[16] = test system: K-562 leukemia
[17] = test system: LOX IMVI melanoma
[18] = test system: RXF 393 renal
[19] = test system: SR leukemia

SMILES	TGI [1]	TGI [2]	TGI [3]	TGI [4]	TGI [5]	TGI [6]	TGI [7]	TGI [8]	TGI [9]	TGI [10]	TGI [11]	TGI [12]	TGI [13]	TGI [14]	TGI [15]	TGI [16]	TGI [17]	TGI [18]	TGI [19]
O=C(Nc1ccc2[nH]c(C(=O)N3CC(CCl)c4c3cc([N+](=O)[O-])c3ccccc43)cc2c1)Nc1ccc2[nH]c(C(=O)N3CC(CCl)c4c3cc([N+](=O)[O-])c3ccccc43)cc2c1 (stereo not drawn)	> 100 µM	> 100 µM	36.9 µM	> 100 µM	> 100 µM	> 100 µM	> 100 µM	> 100 µM	> 100 µM	> 100 µM	> 100 µM	> 100 µM	> 100 µM	–	–	–	–	–	–
O=C(CN1CCOCC1)c1ccc2c(c1)oc(=O)n2CCN1CCOCC1	–	> 100 µM	> 100 µM	> 100 µM	> 100 µM	–	> 100 µM	> 100 µM	> 100 µM	> 100 µM	–	> 100 µM	–	> 100 µM	> 100 µM	> 100 µM	> 100 µM	> 100 µM	> 100 µM
O=c1[nH]nc(-c2ccccc2)n1/N=C/c1cccs1	> 100 µM	> 100 µM	> 100 µM	35.8 µM	> 100 µM	–	> 100 µM	> 100 µM	> 100 µM	> 100 µM	> 100 µM	> 100 µM	> 100 µM	–	> 100 µM	> 100 µM	> 100 µM	85.2 µM	–
CC(C)N=C(N)NC#N	> 100 µM	> 100 µM	> 100 µM	> 100 µM	> 100 µM	–	> 100 µM	> 100 µM	–	> 100 µM	–	–	> 100 µM	> 100 µM	> 100 µM	> 100 µM	> 100 µM	–	–
CC(=O)NC1(c2cc3ccccc3s2)CCCCCC1	> 100 µM	> 100 µM	52.6 µM	50 µM	57.3 µM	> 100 µM	–	> 100 µM	> 100 µM	> 100 µM	–	> 100 µM	> 100 µM	55.4 µM	> 100 µM	97.3 µM	> 100 µM	80.6 µM	93.1 µM
N#CC(Cc1ccccc1)N(CCC1=CCCCC1)Cc1ccccc1 (stereo not drawn)	> 100 µM	> 100 µM	–	66.4 µM	> 100 µM	> 100 µM	> 100 µM	–	> 100 µM	> 100 µM	> 100 µM	> 100 µM	> 100 µM	–	> 100 µM	> 100 µM	–	> 100 µM	–
CN(/N=C/c1cccc2cccnc12)c1ccc(Cl)cc1[N+](=O)[O-]	> 100 µM	> 100 µM	> 100 µM	> 100 µM	> 100 µM	> 100 µM	> 100 µM	> 100 µM	–	> 100 µM	–	> 100 µM	> 100 µM	> 100 µM	> 100 µM	> 100 µM	–	> 100 µM	> 100 µM
CC(C)NC(=O)OCc1c(CO)c2c(n1C)-c1ccccc1CC2	–	29.7 µM	45.2 µM	44.7 µM	> 100 µM	53.7 µM	> 31.6 µM	57.3 µM	64.4 µM	> 100 µM	–	> 61.4 µM	> 100 µM	> 58.3 µM	54.5 µM	46 µM	56.8 µM	49.6 µM	–
N#Cc1c(N2CCC(O)C2)c2ccccc2n2c1nc1ccccc12 (stereo not drawn)	42 µM	> 100 µM	> 100 µM	> 100 µM	> 100 µM	95.7 µM	> 100 µM	> 100 µM	> 100 µM	> 100 µM	> 100 µM	–	> 100 µM	> 100 µM	> 100 µM	–	> 100 µM	–	–
CSc1nc(NC2OC(COC(C)=O)C(OC(C)=O)C(OC(C)=O)C2OC(C)=O)c2c(n1)OCC2=O (stereo not drawn)	> 100 µM	> 100 µM	> 100 µM	> 100 µM	–	> 100 µM	> 100 µM	> 100 µM	> 100 µM	> 100 µM	–	> 100 µM	> 100 µM	> 100 µM	> 100 µM	> 100 µM	> 100 µM	–	> 100 µM
COC(O)C(=O)c1ccc2c(c1)CC1(C2)Cc2cc3c(cc2C1=O)CCC3 (stereo not drawn)	30.6 µM	31.2 µM	48 µM	47.2 µM	45.7 µM	–	36.1 µM	35.4 µM	29.6 µM	34.5 µM	48.1 µM	35.5 µM	39.7 µM	–	42.3 µM	21.8 µM	10.1 µM	–	–
Cc1c(N2CCN(C)CC2)nc2ccc(Cl)cc2c1-c1ccccc1	57.7 µM	41.6 µM	42.2 µM	29.7 µM	34.1 µM	–	35.7 µM	33.9 µM	32.9 µM	66.2 µM	–	33.1 µM	33 µM	34.5 µM	27.7 µM	35.7 µM	28.3 µM	42.3 µM	39.2 µM
